Tested on: moderate-to-severe chronic spontaneous urticaria (CSU)
Experiment: Phase 2 CSU study: urticaria activity score over 7 days (UAS7)
Assay type: in vivo, human
Conditions: Omalizumab-Naïve
Source text: The study comprises a 12 week, randomized, double-blind, placebo-controlled, multi-center, dose-ranging efficacy and safety phase, followed by a 40 week open label extension (OLE) phase (see FIG. 1). The study consists of three phases and an optional OLE phase. […] Clinically, CSU is characterized by the spontaneous and recurrent appearance of pruritic hives. The proposed primary endpoints were the UAS7 at Week 12 in EU and EU reference countries and the ISS7 in the US. Regardless of where a participant was from, all assessments were the same. The UAS7 score is a composite score containing both the HSS7 and the ISS7. This allowed a global assessment of the two key components of urticaria: hives and itch. […] The UAS is a validated PRO measure. […] The daily UAS scores range from 0 to 6 point/day. […] Patients were to complete the UAS using the e-diary. […] The following secondary endpoints were to be analyzed using the same approach as for the primary endpoint: • Change from baseline in UAS7 at Week 4 • Change from baseline in UAS7 at Week 12 (for US and US reference countries) • Change from baseline in ISS7 at Week 12 (except US and US reference countries) • Change from baseline in HSS7 at Week 12 The following responder secondary endpoints were to be analyzed using the Cochran-Mantel-Haenszel test adjusted by region: • Proportion of participants with UAS7<6 at Week 12 • Proportion of participants with UAS7=0 at Week 12 Participants who received selected prohibited medications and/or rescue medications were to be considered as non-responders for time points after the medication usage. For other participants, all available data including those collected during the off-treatment period were to be used to determine the responder/non-responder status. Missing data were to be considered as non-responders.

[1] = Baseline Total IgE (IU/mL) ≥300, 400 mg BID
[2] = Baseline Total IgE (IU/mL) ≥300, 400 mg QPM
[3] = Baseline Total IgE (IU/mL) ≥300, 400 mg TID
[4] = Baseline UAS7 score <28, 400 mg BID
[5] = Baseline UAS7 score <28, 400 mg QPM
[6] = Baseline UAS7 score <28, 400 mg TID
[7] = Baseline UAS7 score ≥28, 400 mg BID
[8] = Baseline UAS7 score ≥28, 400 mg QPM
[9] = Baseline UAS7 score ≥28, 400 mg TID
[10] = Duration of disease (years) 2-10, 400 mg BID
[11] = Duration of disease (years) 2-10, 400 mg QPM
[12] = Duration of disease (years) 2-10, 400 mg TID
[13] = Duration of disease (years) <2, 400 mg BID
[14] = Duration of disease (years) <2, 400 mg QPM
[15] = Duration of disease (years) <2, 400 mg TID
[16] = Duration of disease (years) >10, 400 mg BID
[17] = Duration of disease (years) >10, 400 mg QPM
[18] = Duration of disease (years) >10, 400 mg TID
[19] = Ethnicity Non-Hispanic, 400 mg BID
[20] = Ethnicity Non-Hispanic, 400 mg QPM

Compound: CC(C)(C=C(C#N)C(=O)N1CCC[C@@H](n2nc(-c3ccc(Oc4ccccc4)cc3F)c3c(N)ncnc32)C1)N1CCN(C2COC2)CC1 [rilzabrutinib, (R)-2-[3-[4-amino-3-(2-fluoro-4-phenoxy-phenyl)pyrazolo[3,4-d]pyrimidin-1-yl]piperidine-1-carbonyl]-4-methyl-4-[4-(oxetan-3-yl)piperazin-1-yl]pent-2-enenitrile]
- Change from Baseline in UAS7 at Week 12: Mean (SD) (Baseline Total IgE (IU/mL) ≥100, 400 mg TID): −17.31 (9.51)
- Change from Baseline in UAS7 at Week 12: LS Mean (SE) [1]: −14.22 (3.59)
- Change from Baseline in UAS7 at Week 12: LS Mean Diff vs. placebo (95% CI) [1]: −1.77 (−12.00, 8.47)
- Change from Baseline in UAS7 at Week 12: LS Mean (SE) [2]: −8.04 (3.57)
- Change from Baseline in UAS7 at Week 12: LS Mean Diff vs. placebo (95% CI) [2]: 4.42 (−5.58, 14.42)
- Change from Baseline in UAS7 at Week 12: Mean (SD) [2]: −9.60 (9.52)
- Change from Baseline in UAS7 at Week 12: LS Mean (SE) [3]: −14.94 (3.46)
- Change from Baseline in UAS7 at Week 12: LS Mean Diff vs. placebo (95% CI) [3]: −2.48 (−12.37, 7.41)
- Change from Baseline in UAS7 at Week 12: Mean (SD) [3]: −16.12 (9.22)
- Change from Baseline in UAS7 at Week 12: LS Mean Diff vs. placebo (95% CI) [4]: −4.49 (−12.35, 3.38)
- Change from Baseline in UAS7 at Week 12: Mean (SD) [4]: −11.43 (8.06)
- Change from Baseline in UAS7 at Week 12: LS Mean (SE) [5]: −5.87 (3.45)
- Change from Baseline in UAS7 at Week 12: LS Mean Diff vs. placebo (95% CI) [5]: −1.46 (−10.06, 7.14)
- Change from Baseline in UAS7 at Week 12: Mean (SD) [5]: −8.39 (3.86)
- Change from Baseline in UAS7 at Week 12: LS Mean Diff vs. placebo (95% CI) [6]: −7.34 (−15.21, 0.52)
- Change from Baseline in UAS7 at Week 12: Mean (SD) [6]: −13.43 (7.05)
- Change from Baseline in UAS7 at Week 12: LS Mean (SE) [7]: −17.23 (2.81)
- Change from Baseline in UAS7 at Week 12: LS Mean Diff vs. placebo (95% CI) [7]: −4.13 (−11.78, 3.52)
- Change from Baseline in UAS7 at Week 12: Mean (SD) [7]: −16.73 (14.20)
- Change from Baseline in UAS7 at Week 12: LS Mean (SE) [8]: −11.17 (2.39)
- Change from Baseline in UAS7 at Week 12: LS Mean Diff vs. placebo (95% CI) [8]: 1.94 (−5.16, 9.03)
- Change from Baseline in UAS7 at Week 12: LS Mean (SE) [9]: −19.91 (2.64)
- Change from Baseline in UAS7 at Week 12: LS Mean Diff vs. placebo (95% CI) [9]: −6.81 (−14.23, 0.62)
- Change from Baseline in UAS7 at Week 12: Mean (SD) [9]: −22.66 (12.35)
- Change from Baseline in UAS7 at Week 12: Mean (SD) (Baseline weight (kg) <72.9 (Median), 400 mg BID): −12.97 (9.84)
- Change from Baseline in UAS7 at Week 12: Mean (SD) (Baseline weight (kg) <72.9 (Median), 400 mg QPM): −7.98 (7.20)
- Change from Baseline in UAS7 at Week 12: Mean (SD) (Baseline weight (kg) <72.9 (Median), 400 mg TID): −20.83 (13.25)
- Change from Baseline in UAS7 at Week 12: LS Mean (SE) [10]: −12.88 (3.03)
- Change from Baseline in UAS7 at Week 12: LS Mean Diff vs. placebo (95% CI) [10]: −0.05 (−8.24, 8.14)
- Change from Baseline in UAS7 at Week 12: Mean (SD) [10]: −15.56 (14.75)
- Change from Baseline in UAS7 at Week 12: LS Mean (SE) [11]: −9.73 (2.58)
- Change from Baseline in UAS7 at Week 12: LS Mean Diff vs. placebo (95% CI) [11]: 3.11 (−4.51, 10.72)
- Change from Baseline in UAS7 at Week 12: Mean (SD) [11]: −10.83 (9.70)
- Change from Baseline in UAS7 at Week 12: LS Mean (SE) [12]: −16.44 (3.07)
- Change from Baseline in UAS7 at Week 12: LS Mean Diff vs. placebo (95% CI) [12]: −3.61 (−11.80, 4.58)
- Change from Baseline in UAS7 at Week 12: Mean (SD) [12]: −17.51 (11.39)
- Change from Baseline in UAS7 at Week 12: LS Mean (SE) [13]: −16.30 (2.66)
- Change from Baseline in UAS7 at Week 12: LS Mean Diff vs. placebo (95% CI) [13]: −9.24 (−17.02, −1.46)
- Change from Baseline in UAS7 at Week 12: Mean (SD) [13]: −14.54 (10.00)
- Change from Baseline in UAS7 at Week 12: LS Mean (SE) [14]: −10.62 (3.36)
- Change from Baseline in UAS7 at Week 12: LS Mean Diff vs. placebo (95% CI) [14]: −3.55 (−12.28, 5.17)
- Change from Baseline in UAS7 at Week 12: LS Mean (SE) [15]: −17.20 (3.03)
- Change from Baseline in UAS7 at Week 12: LS Mean Diff vs. placebo (95% CI) [15]: −10.14 (−18.42, −1.86)
- Change from Baseline in UAS7 at Week 12: Mean (SD) [15]: −19.20 (11.00)
- Change from Baseline in UAS7 at Week 12: LS Mean (SE) [16]: 8.87 (12.67)
- Change from Baseline in UAS7 at Week 12: LS Mean Diff vs. placebo (95% CI) [16]: 14.79 (−14.26, 43.85)
- Change from Baseline in UAS7 at Week 12: Mean (SD) [16]: −1.83 (NC)
- Change from Baseline in UAS7 at Week 12: LS Mean Diff vs. placebo (95% CI) [17]: 4.87 (−13.68, 23.41)
- Change from Baseline in UAS7 at Week 12: Mean (SD) [17]: −4.70 (7.74)
- Change from Baseline in UAS7 at Week 12: LS Mean (SE) [18]: −18.73 (5.22)
- Change from Baseline in UAS7 at Week 12: LS Mean Diff vs. placebo (95% CI) [18]: −12.81 (−29.81, 4.20)
- Change from Baseline in UAS7 at Week 12: Mean (SD) [18]: −23.13 (14.76)
- Change from Baseline in UAS7 at Week 12: LS Mean (SE) (Ethnicity Hispanic, 400 mg BID): −10.31 (3.59)
- Change from Baseline in UAS7 at Week 12: LS Mean Diff vs. placebo (95% CI) (Ethnicity Hispanic, 400 mg BID): 2.24 (−7.72, 12.19)
- Change from Baseline in UAS7 at Week 12: Mean (SD) (Ethnicity Hispanic, 400 mg BID): −10.23 (11.81)
- Change from Baseline in UAS7 at Week 12: LS Mean (SE) (Ethnicity Hispanic, 400 mg QPM): −8.80 (2.97)
- Change from Baseline in UAS7 at Week 12: LS Mean Diff vs. placebo (95% CI) (Ethnicity Hispanic, 400 mg QPM): 3.74 (−5.35, 12.83)
- Change from Baseline in UAS7 at Week 12: Mean (SD) (Ethnicity Hispanic, 400 mg QPM): −10.26 (9.92)
- Change from Baseline in UAS7 at Week 12: LS Mean (SE) (Ethnicity Hispanic, 400 mg TID): −13.76 (3.78)
- Change from Baseline in UAS7 at Week 12: LS Mean Diff vs. placebo (95% CI) (Ethnicity Hispanic, 400 mg TID): −1.22 (−11.34, 8.91)
- Change from Baseline in UAS7 at Week 12: Mean (SD) (Ethnicity Hispanic, 400 mg TID): −15.49 (12.69)
- Change from Baseline in UAS7 at Week 12: LS Mean (SE) [19]: −16.16 (2.46)
- Change from Baseline in UAS7 at Week 12: LS Mean Diff vs. placebo (95% CI) [19]: −7.92 (−14.63, −1.20)
- Change from Baseline in UAS7 at Week 12: Mean (SD) [19]: −16.52 (12.39)
- Change from Baseline in UAS7 at Week 12: LS Mean (SE) [20]: 9.79 (2.59)
- Change from Baseline in UAS7 at Week 12: LS Mean Diff vs. placebo (95% CI) [20]: −1.54 (−8.49, 5.41)
